According to the NIST ThermoML archive (doi:10.1021/je400581e):
± gives the expanded uncertainty stated by the source.

Tests used:
[1] = refractive index (Na D-line) (dimensionless); conditions: 298.15 K; 101.33 kPa; Liquid; Standard Abbe refractometry
[2] = Liquid; for mass density: 298.15 K, 101.33 kPa, Vibrating tube method

CC(C)CCO [3-methylbutan-1-ol]
Conditions	mass density [kg/m3]	refractive index
[1]	–	1.4035 ± 0.0007
[2]	806.21 ± 0.12	–

[2]
Conditions	vapor or sublimation pressure [kPa]
395.68 K	74.7 ± 6.6
404.7 K	101.3 ± 12
404.71 K	101.3 ± 3.4

CC(C)CO [2-methyl-1-propanol]
Conditions	mass density [kg/m3]	refractive index
[1]	–	1.3927 ± 0.0007
[2]	795.35 ± 0.15	–

[2], Ebulliometric method (Recirculating still)
Conditions	vapor or sublimation pressure [kPa]
347.84 K	26.2 ± 0.15
351.07 K	30.19 ± 0.17
359.54 K	43.66 ± 0.19
362.99 K	50.45 ± 0.23
368.56 K	63.25 ± 0.26
372.09 K	72.73 ± 0.42
372.56 K	74.66 ± 0.42
375.06 K	81.58 ± 0.32
378.19 K	91.8 ± 0.36
380.73 K	101.32 ± 0.38
382.25 K	106.5 ± 0.35

CC(C)O [propan-2-ol]
Conditions	mass density [kg/m3]	refractive index
[1]	–	1.374 ± 0.0007
[2]	779.36 ± 0.15	–

[2], Ebulliometric method (Recirculating still)
Conditions	vapor or sublimation pressure [kPa]
325.2 K	26.21 ± 0.16
328 K	30.2 ± 0.19
335.73 K	43.66 ± 0.2
338.88 K	50.43 ± 0.25
343.99 K	63.24 ± 0.28
347.25 K	72.74 ± 0.33
347.86 K	74.65 ± 0.34
349.98 K	81.59 ± 0.36
352.84 K	91.8 ± 0.38
355.37 K	101.3 ± 0.4
356.56 K	106.52 ± 0.45
